The target in one data set is T1, hMOR + Gqi5 (Homo sapiens, UniProt P35372).
T1 construct: expressed in transfected cells
Description: IP accumulation assay, hMOR + Gqi5. Format: cell-based. The note with it: % morphine.

For data set [1], the target named is T2, hKOR (Homo sapiens, UniProt P41145). The experiment in a line: Radioligand binding studies (Example 6) at hKOR. On the procedure: (§1) For a primary screen of selected molecules, binding to μOR was assessed by measuring competition against the radioligand ^3H-diprenorphine (^3H-DPN). […] The reaction contained 40 fmol of μOR and was incubated in a buffer of 20 mM HEPES pH 7.5, 100 mM sodium chloride, and 0.1% bovine serum albumin for 1 hour at 25° C. To separate free from bound radioligand, reactions were rapidly filtered over Whatman GF/B filters with the aid of a Brandel harvester and ^3H-DPN counts were measured by liquid scintillation. […] Subsequently, the 8 compounds were tested in full dose-response for affinity at the μOR and the κOR by the National Institutes of Mental Health Psychoactive Drug Screen Program (PDSP), as were the affinities of the compounds at the μOR, δOR, κOR, and the nociception receptor.
T2 sequence (P41145 whole entry): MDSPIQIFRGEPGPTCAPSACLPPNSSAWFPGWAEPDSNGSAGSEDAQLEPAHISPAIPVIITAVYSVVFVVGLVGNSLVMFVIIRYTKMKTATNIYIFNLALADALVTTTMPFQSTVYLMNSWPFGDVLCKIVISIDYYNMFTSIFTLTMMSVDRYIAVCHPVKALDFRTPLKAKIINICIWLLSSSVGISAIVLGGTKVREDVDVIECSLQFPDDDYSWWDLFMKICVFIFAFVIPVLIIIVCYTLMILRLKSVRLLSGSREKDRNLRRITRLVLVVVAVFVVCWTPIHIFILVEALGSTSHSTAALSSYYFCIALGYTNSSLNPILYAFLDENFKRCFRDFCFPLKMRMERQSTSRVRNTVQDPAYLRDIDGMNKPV

In data set [2] the target is T3, hMOR (Homo sapiens, UniProt P35372). Description: Radioligand binding studies (Example 6) at hMOR. On the procedure: as §1
T3 sequence (P35372 whole entry): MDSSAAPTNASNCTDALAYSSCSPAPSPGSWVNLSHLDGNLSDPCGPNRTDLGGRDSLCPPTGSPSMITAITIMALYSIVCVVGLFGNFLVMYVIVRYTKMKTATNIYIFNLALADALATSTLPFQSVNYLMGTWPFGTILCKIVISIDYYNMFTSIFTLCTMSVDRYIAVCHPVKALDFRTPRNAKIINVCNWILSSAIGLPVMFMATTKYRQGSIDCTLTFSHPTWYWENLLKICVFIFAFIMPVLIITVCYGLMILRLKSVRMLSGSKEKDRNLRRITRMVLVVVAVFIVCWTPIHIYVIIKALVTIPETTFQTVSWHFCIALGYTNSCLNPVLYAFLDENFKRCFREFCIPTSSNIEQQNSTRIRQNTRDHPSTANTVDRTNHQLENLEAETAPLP
A further data set has as its target hDOR (Homo sapiens, UniProt P41143). Description: Radioligand binding studies (Example 6) at hDOR. How it is done: as §1
The target in data set [3] is T2, hKOR. Description: Receptor binding with [3H]diprenorphine at hKOR. The note with it: ± SD (two experiments) or SEM; (n) experiments; read-out: hKOR [3H]dyprenorphine Ki.
For data set [4], the target named is T3, hMOR. Description: Receptor binding with [3H]diprenorphine at hMOR. The note with it: ± SD (two experiments) or SEM; (n) experiments; read-out: hMOR [3H]dyprenorphine Ki.
The next data set deals with humanDOR (Homo sapiens, UniProt P41143). Description: Receptor binding with [3H]diprenorphine at human DOR. Conditions: ± SD (two experiments) or SEM; (n) experiments; read-out: humanDOR [3H]dyprenorphine Ki.
Chain of humanDOR (P41143 whole entry): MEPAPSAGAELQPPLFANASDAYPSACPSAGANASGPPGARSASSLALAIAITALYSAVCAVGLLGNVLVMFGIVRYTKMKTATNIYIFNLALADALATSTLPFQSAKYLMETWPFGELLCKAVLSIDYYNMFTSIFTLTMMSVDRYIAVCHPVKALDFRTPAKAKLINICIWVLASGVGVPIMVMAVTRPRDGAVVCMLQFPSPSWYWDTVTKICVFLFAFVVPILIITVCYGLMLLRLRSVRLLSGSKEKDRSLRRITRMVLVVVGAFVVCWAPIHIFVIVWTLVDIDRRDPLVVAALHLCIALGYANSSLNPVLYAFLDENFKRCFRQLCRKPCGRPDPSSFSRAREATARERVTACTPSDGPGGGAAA
Data set [5] has as its target T4, μOR (Homo sapiens, UniProt P35372). Description: β-arrestin recruitment at μOR without GRK2. In kind it is cell-based. For orientation: Recruitment of arrestin is a read-out of receptor activation apart from second messengers.
Data set [6] concerns the target T4, μOR. Description: β-arrestin recruitment at μOR with GRK2 co-expression. In kind it is cell-based.
Data set [7] addresses T5, κOR (Homo sapiens, UniProt P41145).
T5 construct: NIMH Psychoactive Drug Screening Program (PDSP)
The experiment in a line: Gi/o Glosensor assay at κOR. In kind it is cell-based.

The test system of data set [8] is C57BL/6J mice. Description: Mouse whole body plethysmography (respiration). Conditions: equianalgesic doses of PZM21, TRV130 and morphine (40 mg/kg, […], 10 mg/kg).
The subject of data set [9] is C57BL/6J mice. Description: Conditioned place preference. Conditions: mouse, in vivo. How it is done: On day 1 (preconditioning day), mice were placed in the central chamber and allowed to explore freely for 30 minutes. Time spent in each compartment was used to estimate baseline chamber preferences and mice showing specific chamber bias more than 70% were not studied further. On days 2-9 (conditioning days) mice were injected with either vehicle or drug and paired with either the white mesh or the black rod chambers. All mice received vehicle on days 2, 4, 6, 8 and drug on days 3, 5, 7, 9. On day 10 (test day), mice were again placed in the central chamber as on day 1 and allowed to explore freely for 30 minutes. Time spent in each chamber was expressed as percentage preference.

Data set [10] concerns the target T4, μOR. The experiment in a line: BRET-based cAMP accumulation assay (SAR of PZM21-29). The note with it: for loss of potency: compared to parent reference compound (PZM22). Format: cell-based. Background: BRET reads energy transfer from a luciferase to a nearby fluorophore.
Another data set concerns the target T6, μOR:N127C (Homo sapiens, UniProt P35372, N129C).
T6 construct: expressed in transfected cells; host or cells: HEK 293
The experiment in a line: Radioligand depletion assay, irreversible binding at μOR:N127C. Conditions: wash-resistant inhibition of radioligand binding.

In the next data set the target is T7, nociceptin receptor (Homo sapiens, UniProt P41146).
T7 construct: NIMH Psychoactive Drug Screening Program (PDSP)
T7 sequence (P41146 whole entry): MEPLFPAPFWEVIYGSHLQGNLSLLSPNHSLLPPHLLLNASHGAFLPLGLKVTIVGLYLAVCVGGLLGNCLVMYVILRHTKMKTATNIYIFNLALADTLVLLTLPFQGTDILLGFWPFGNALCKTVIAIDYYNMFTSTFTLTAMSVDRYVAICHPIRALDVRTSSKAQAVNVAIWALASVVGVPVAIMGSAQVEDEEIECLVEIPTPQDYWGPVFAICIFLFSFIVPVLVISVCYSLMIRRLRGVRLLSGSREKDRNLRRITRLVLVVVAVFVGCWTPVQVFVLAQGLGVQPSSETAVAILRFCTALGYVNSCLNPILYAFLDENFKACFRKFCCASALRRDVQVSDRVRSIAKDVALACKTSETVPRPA
The experiment in a line: Gi/o Glosensor assay at nociceptin receptor. In kind it is cell-based. The note with it: ND = not detectable.

Data set [11] addresses T4, μOR. Description: cell-based. Format: cell-based.
Data set [12] concerns the target T5, κOR. Description: Radioligand binding at κOR (PDSP).
Data set [13] deals with T4, μOR. The experiment in a line: β-arrestin2 recruitment, PathHunter assay. In kind it is cell-based.

This note sets out measurements from patent US20200109126A1 (priority 2017, published 2020).

“Also recorded” adds a separate entry of the source. Like-named read-outs stand apart in the source and are kept apart here.

T5 sequence (P41145 whole entry): as the sequence (P41145 whole entry) above
Chain of hDOR (P41143 whole entry): as the sequence (P41143 whole entry) above
T4 sequence (P35372 whole entry): as the sequence (P35372 whole entry) above
T1 sequence (P35372 whole entry): as above
T6 sequence (P35372 whole entry N129C): as the sequence (P35372 whole entry) above, with N129C counted along it

In the case of `CC(Cc1ccsc1)NC(=O)NCC(Cc1ccc(O)cc1)N(C)C` (single isomer, unassigned) [BD 122LS], the “hMOR + Gqi5 IP accumulation assay efficacy a” value on hMOR + Gqi5 is given as “a: 73%”.

`CN[C@H](CNC(=O)NCCc1ccc(F)cc1OC)Cc1ccc(O)cc1` [DD229, (5)-1-(4-fluoro-2-methoxyphenethyl)-3-(3-(4-hydroxyphenyl)-2-(methylamino)propyl)urea]: the Ki on hKOR [1] (read-out: Binding affinities hKOR [3H]dyprenorph) was determined as 320 nM; at hMOR [2] (read-out: Binding affinities hMOR [3H]dyprenorph), 130 nM; on hDOR (read-out: Binding affinities hDOR [3H]dyprenorph), 480 nM.

With `COc1ccc(C[C@@H](CNC(=O)N[C@@H](C)Cc2ccsc2)N(C)C)cc1` [DD222, 1-((S)-2-(dimethylamino)-3-(4-methoxyphenyl)propyl)-3-((S)-1-(thiophen-3-yl)propan-2-yl)urea], the Ki at hKOR [1] was found to be 460 nM; at hMOR [2] it was 390 nM; on hDOR it was 5900 nM.

With “(S)-1-(2-(dimethylamino)-3-(4-hydroxy-2,6-dimethylphenyl)propyl)-3-(2-(thiophen-3-yl)ethyl)urea [DD 34L]”, the values for the Ki on hKOR [3], at hMOR [4] and on humanDOR were 27 nM, 6.2 nM and 51 nM, respectively. Besides, the “hMOR + Gqi5 IP accumulation assay efficacy a” value on hMOR + Gqi5 was “a: <5%”.

With `C[C@@H](Cc1ccsc1)Nc1c(NC[C@H](Cc2ccc(O)cc2)N(C)C)c(=O)c1=O` [DD251, 3-(((S)-2-(dimethylamino)-3-(4-hydroxyphenyl)propyl)amino)-4-(((S)-1-(thiophen-3-yl)propan-2-yl)amino)cyclobut-3-ene-1,2-dione], the Ki came out at 16 nM on hKOR [1], 33 nM at hMOR [2] and 650 nM on hDOR.

In the case of `COc1ccsc1CNCC[C@@]1(c2ccccn2)CCOC2(CCCC2)C1` [TRV130, reference compound], the “β-arrestin2 recruitment in the absence of GRK2 (in words)” value at μOR [5] is “no β-arrestin2 recruitment”. The “arrestin recruitment with over-expressed GRK2 (in words)” value on μOR [6] was “arrestin recruitment”. In addition, on κOR [7], the “KOR agonist activity (in words)” value is “activates κOR with similar potency to morphine”. Moreover, the respiration frequency entry in the data set on C57BL/6J mice [8] is on record as “significantly depresses respiration at 15 minutes”. In addition, in the data set on C57BL/6J mice [9], the conditioned place preference entry is reported as “not significant relative to vehicle”.

`CN(C)[C@H](CNc1nc(=O)cc(Cc2ccccc2)[nH]1)Cc1ccc(O)cc1` [DD258, (S)-6-benzyl-2-((2-(dimethylamino)-3-(4-hydroxyphenyl)propyl)amino)pyrimidin-4(1H)-one]: the Ki at hKOR [1] turned out to be 350 nM; on hMOR [2], 290 nM; at hDOR, 390 nM.

With `COc1cc(F)ccc1CCNC(=O)NC[C@H](Cc1ccc(O)cc1)N(C)C` [DD214, (S)-1-(2-(dimethylamino)-3-(4-hydroxyphenyl)propyl)-3-(4-fluoro-2-methoxyphenethyl)urea], the Ki is 170 nM on hKOR [1], 42 nM on hMOR [2] and 390 nM on hDOR.

`CC(=O)Oc1ccc(C[C@@H](CNC(=O)N[C@@H](C)Cc2ccsc2)N(C)C)cc1` [DD230, 4-((S)-2-(dimethylamino)-3-(3-((S)-1-(thiophen-3-yl)propan-2-yl)ureido)propyl)phenyl acetate]: the Ki on hKOR [1] was determined as 250 nM; on hMOR [2], 240 nM; at hDOR it was 920 nM.

For `Cc1cc(O)cc(C)c1C[C@@H](CNC(=O)N[C@H](C)Cc1ccsc1)N(C)C` [BD 131LR, 1-((S)-2-(dimethylamino)-3-(4-hydroxy-2,6-dimethylphenyl)propyl)-3-((R)-1-(thiophen-3-yl)propan-2-yl)urea], the Ki was found to be 12 nM on hKOR [3], 4.1 nM at hMOR [4] and 17 nM on humanDOR. Moreover, the “hMOR + Gqi5 IP accumulation assay efficacy a @10 μM” value at hMOR + Gqi5 (@10 μM) was “@10 μM a: 10%”.

As to `CN(C=O)[C@H](CNC(=O)NCCc1ccccc1)Cc1ccc(O)cc1` [PZM28, (S)—N-(1-(4-Hydroxyphenyl)-3-(3-phenethylureido)propan-2-yl)-N-methylformamide], at μOR [10], the loss of potency stood at 1000 fold.

Consider `CN(C)[C@H](CNC(=O)NCCc1cn(CCSSCCN=[N+]=[N-])nn1)Cc1ccc(O)cc1` [PZM29, (S)-1-(2-(1-(2-((2-Azidoethyl)disulfanyl)ethyl)-1H-1,2,3-triazol-4-yl)ethyl)-3-(2-(dimethylamino)-3-(4-hydroxyphenyl)propyl)urea x CF3COOH], for which, at μOR:N127C, the “irreversible binding to μOR:N127C” value is listed as “binds to the μOR:N127C variant irreversibly; also recorded: binds irreversibly to this mutant”. Moreover, the “efficacy and potency as agonist (in words)” value at μOR [10] is reported as “retains its efficacy as an agonist”.

For the molecule `C[C@H](Cc1ccsc1)NC(=O)NC[C@@H](Cc1ccccc1)N(C)C` [compound 12], on nociceptin receptor, the EC50 – broadly, the midpoint of the concentration-response curve – was determined as 1400 nM. Besides, the “Gi/o activation, μOR agonist activity (in words)” value on μOR [11] was “robust μOR agonist activity; also recorded: strongly activated Gi/o”. For the same molecule, the Ki was 464 nM on κOR [12] (Ki (nM) κOR) and 460 nM on κOR [12] (κOR Ki (μM), analogs, full dose-response). Also, the “β-arrestin2 recruitment (in words)” value at μOR [13] was “undetectable; also recorded: low levels”.

Turning to `C[C@@H](Cc1ccsc1)NC(=O)NC[C@@H]1Cc2ccc(O)cc2CN1C` [DD118, 1-(((S)-7-hydroxy-2-methyl-1,2,3,4-tetrahydroisoquinolin-3-yl)methyl)-3-((S)-1-(thiophen-3-yl)propan-2-yl)urea], the Ki on hKOR [1] came to 110 nM; on hMOR [2] it was 150 nM; on hDOR it was 150 nM.

Regarding `Cc1cc(O)cc(C)c1C[C@@H](CNC(=O)N[C@@H](C)Cc1ccsc1)N(C)C` [BD 131LS, 1-((S)-2-(dimethylamino)-3-(4-hydroxy-2,6-dimethylphenyl)propyl)-3-((S)-1-(thiophen-3-yl)propan-2-yl)urea], the Ki at hKOR [3] is 6.5 nM; on hMOR [4], 12 nM; on humanDOR, 85 nM. In addition, the “hMOR + Gqi5 IP accumulation assay efficacy a” value on hMOR + Gqi5 is recorded as “a: <5%”.

On to `CC(Cc1ccsc1)NC(=O)NCC(Cc1ccc(O)cc1)N(C)C` (single isomer, unassigned) [BD 122LR], for which the Ki at hKOR [3] stood at 190 nM; on humanDOR, 88 nM. Further, the “hMOR + Gqi5 IP accumulation assay efficacy a” value at hMOR + Gqi5 was “a: 17%”.

Consider `CN(C)[C@H](CNc1c(NCCc2ccccc2)c(=O)c1=O)Cc1ccc(O)cc1` [DD247, (S)-3-((2-(dimethylamino)-3-(4-hydroxyphenyl)propyl)amino)-4-(phenethylamino)cyclobut-3-ene-1,2-dione], for which the Ki at hKOR [1] was found to be 310 nM; at hMOR [2] it was 320 nM; at hDOR, 2900 nM.

Turning to `CN(CC1CC1)[C@H](CNC(=O)NCCc1ccccc1)Cc1ccc(O)cc1` [PZM27, (S)-1-(2-((Cyclopropylmethyl)(methyl)amino)-3-(4-hydroxyphenyl)propyl)-3-phenethylurea x CF3COOH], at μOR [10], the “efficacy and potency as agonist (in words)” value was “decreased efficacy”; the loss of potency stood at 30 fold.
